This passage reports IC50 and DC50 results from US11352350B2, “IRAK degraders and uses thereof” (Kymera Therapeutics, Inc., priority 2018, dated 2022).

Where two headings read alike, the source gives them in different places.

One may read the IC50 as the concentration needed to halve the response being measured. Usually DC50 stands for the concentration at which degradation of the target reaches its halfway point.

One experiment concerns OCI-LY10. Kind of experiment: CTG Cell Viability Assay - OCI-LY10. The experiment is classed as cell-based, human. The note with it: OCI-LY10, 4 days, read-out: CTG Cell Viability Assay - OCI-LY10: Average external-IC50. In short, it runs like this:
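OCI-LY10 cells exposed to 9-dose, 1:3 dilutions from 10 μM top (0.2% DMSO) for 4 days at 37° C, 5% CO2. Viability by CellTiter-Glo luminescence; IC50 from three-parameter logistic fit.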

The next experiment has as its target IRAK4 (Homo sapiens (Human), UniProt Q9NWZ3). Kind of experiment: IRAK4 MSD degradation in OCI-LY10. The format is cell-based. In short, it runs like this:
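OCI-LY10 cells treated with 8-point 1:3 dilutions (top 1 to 10 μM final) for 4 to 24 h at 37° C. Lysate IRAK4 measured by MSD sandwich immunoassay (2H9 capture, Y279 detection, SULFO-TAG anti-rabbit). DC50 from three-parameter logistic fit.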

[1] abbreviates: OCI-LY10, 4 hrs, MSD, read-out: IRAK4 MSD degradation in OCI-LY10 at 4 hrs: Average external-Abs DC50.
The mark [2] stands for this setting: OCI-LY10, 24 hrs, MSD, read-out: IRAK4 MSD degradation in OCI-LY10 at 24 hrs: Average external-Abs DC50.
Setting [3] is: OCI-LY10, 4 hrs, read-out: IRAK4 MSD degradation in OCI-LY10 at 4 hrs: DC50.
Setting [4] is: OCI-LY10, 24 hrs, read-out: IRAK4 MSD degradation in OCI-LY10 at 24 hrs: DC50.

Chain of IRAK4 (Q9NWZ3 whole entry): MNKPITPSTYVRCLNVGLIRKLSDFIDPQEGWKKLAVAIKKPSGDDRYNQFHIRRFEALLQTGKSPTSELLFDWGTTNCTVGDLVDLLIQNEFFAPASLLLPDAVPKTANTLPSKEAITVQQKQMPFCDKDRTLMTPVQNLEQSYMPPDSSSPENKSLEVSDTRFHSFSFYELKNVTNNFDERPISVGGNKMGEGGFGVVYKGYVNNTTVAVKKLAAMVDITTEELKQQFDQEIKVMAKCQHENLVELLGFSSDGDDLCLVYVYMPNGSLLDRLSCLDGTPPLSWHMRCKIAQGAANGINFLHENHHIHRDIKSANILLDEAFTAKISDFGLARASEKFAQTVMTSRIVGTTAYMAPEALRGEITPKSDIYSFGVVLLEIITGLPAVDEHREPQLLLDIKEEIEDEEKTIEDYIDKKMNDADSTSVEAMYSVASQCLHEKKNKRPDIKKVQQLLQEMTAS

For the compound `Cn1c(=O)n(C2CCC(=O)NC2=O)c2cccc(CCCOC3CCN(C[C@H]4CC[C@H](n5cc(NC(=O)c6cnn7ccc(N8C(=O)N[C@@H]9[C@H]8CCCC9(F)F)nc67)c(C(F)F)n5)CC4)CC3)c21` (stereo partly shown) [I-291], the IC50 in the experiment with OCI-LY10 (Homo sapiens, OCI-Ly10, 96 h) is less than 50 nM. Further, the DC50 on IRAK4 (setting [1]) and at IRAK4 (setting [2]) was 10 to 100 nM each time.

For `CN(C[C@H]1CC[C@H](n2cc(NC(=O)c3cnn4ccc(N5CCOCC5)nc34)c(C(F)F)n2)CC1)[C@H]1CC[C@H](Nc2cccc3c2C(=O)N(C2CCC(=O)NC2=O)C3=O)CC1` (stereo partly shown) [I-355], the IC50 with OCI-LY10 (Homo sapiens, OCI-Ly10, 96 h) is 100 to 500 nM. The DC50 at IRAK4 (setting [1]) is 10 to 100 nM; at IRAK4 (setting [2]) it was less than 10 nM.

`CC[C@@H]1CC(=O)N[C@@H]1COc1ncc(C#C[C@H]2CC[C@H](CN(C)CCCOCCCc3cccc4c3n(C)c(=O)n4C3CCC(=O)NC3=O)CC2)c2cc(C(N)=O)c(OC)cc12` (stereo partly shown) [I-219]: the IC50 in the experiment on OCI-LY10 (Homo sapiens, OCI-Ly10, 96 h) is more than 1000 nM. For the same compound, the DC50 on IRAK4 (setting [1]) and on IRAK4 (setting [2]) was 10 to 100 nM throughout.

As for `CN(Cc1ccc(-n2cc(NC(=O)c3cnn4ccc(N5CCOCC5)nc34)c(C(F)F)n2)cc1)[C@H]1CC[C@H](Nc2cccc3c2C(=O)N(C2CCC(=O)NC2=O)C3=O)CC1` (stereo partly shown) [I-476], the IC50 with OCI-LY10 (Homo sapiens, OCI-Ly10, 96 h) was more than 1000 nM. For the same compound, the DC50 at IRAK4 (setting [3]) and at IRAK4 (setting [4]) was 10 to 100 nM throughout.

As to `O=C1CCC(N2C(=O)c3cccc(NC4CCN(CCCNC[C@H]5CC[C@H](n6cc(NC(=O)c7cnn8ccc(N9CCOCC9)nc78)c(C(F)F)n6)CC5)CC4)c3C2=O)C(=O)N1` (stereo partly shown) [I-384], the IC50 in the experiment with OCI-LY10 (Homo sapiens, OCI-Ly10, 96 h) was less than 50 nM. For the same compound, the DC50 on IRAK4 (setting [1]) is 10 to 100 nM.

Consider `CN(CCCOCCCc1cccc2c1n(C)c(=O)n2C1CCC(=O)N(C)C1=O)C[C@H]1CC[C@H](n2cc(NC(=O)c3coc(-c4ccnc(NCC5CC5)c4)n3)c(C(F)F)n2)CC1` (stereo partly shown) [I-246], for which the IC50 in the experiment on OCI-LY10 (Homo sapiens, OCI-Ly10, 96 h) was more than 1000 nM. The DC50 on IRAK4 (setting [1]) was 100 to 1000 nM.

Consider `O=C1CCC(N2C(=O)c3cccc(NCCCOC4CCN(C[C@H]5CC[C@H](n6cc(NC(=O)c7cnn8ccc(N[C@@H]9CCCC[C@@H]9O)nc78)c(C(F)F)n6)CC5)CC4)c3C2=O)C(=O)N1` (stereo partly shown) [I-294], for which the half-inhibitory concentration (IC50) in the experiment with OCI-LY10 (Homo sapiens, OCI-Ly10, 96 h) is less than 50 nM. The DC50 on IRAK4 (setting [1]) lay within 10 to 100 nM.

Turning to `O=C1CCC(N2C(=O)c3cccc(NCCCOC4CCN(C[C@H]5CC[C@H](n6cc(NC(=O)c7cnn8ccc(N9CC%10(COC%10)C9)nc78)c(C(F)F)n6)CC5)CC4)c3C2=O)C(=O)N1` (stereo partly shown) [I-364], the IC50 in the experiment with OCI-LY10 (Homo sapiens, OCI-Ly10, 96 h) fell in the range of 50 to 100 nM. At IRAK4 (setting [2]), the DC50 was 10 to 100 nM.

For `O=C1CCC(n2c3cccc(CCCOC4CCN(C[C@H]5CC[C@H](n6cc(NC(=O)c7cnn8ccc(N9CCOCC9)nc78)c(C(F)F)n6)CC5)CC4)c3c3cccnc32)C(=O)N1` (stereo partly shown) [I-196], the IC50 with OCI-LY10 (Homo sapiens, OCI-Ly10, 96 h) was more than 1000 nM. For the same compound, the DC50 on IRAK4 (setting [1]) was in the range of 10 to 100 nM.

Regarding `O=C1CCC(N2C(=O)c3cccc(NCCCCCCC[C@H]4CC[C@H](n5cc(NC(=O)c6cnn7ccc(N8C[C@H]9C[C@@H]8CO9)nc67)c(C(F)F)n5)CC4)c3C2=O)C(=O)N1` (stereo partly shown) [I-354], the IC50 with OCI-LY10 (Homo sapiens, OCI-Ly10, 96 h) was more than 1000 nM. The DC50 on IRAK4 (setting [1]) is more than 1000 nM.

Regarding `O=C1CCC(N2C(=O)c3cccc(NCC4CCN(Cc5ccc(-n6cc(NC(=O)c7cnn8ccc(N9C[C@H]%10C[C@@H]9CO%10)nc78)c(C(F)F)n6)cc5)CC4)c3C2=O)C(=O)N1` (stereo partly shown) [I-489], the IC50 in the experiment on OCI-LY10 (Homo sapiens, OCI-Ly10, 96 h) was less than 50 nM. Moreover, the DC50 on IRAK4 (setting [3]) was 100 to 1000 nM; at IRAK4 (setting [4]), more than 1000 nM.

In the case of `O=C1CCC(N2C(=O)c3cccc(NCc4ccc(CN5CCN(C[C@H]6CC[C@H](n7cc(NC(=O)c8cnn9ccc(N%10CCOCC%10)nc89)c(C(F)F)n7)CC6)CC5)cc4)c3C2=O)C(=O)N1` (stereo partly shown) [I-356], the IC50 with OCI-LY10 (Homo sapiens, OCI-Ly10, 96 h) was less than 50 nM. Besides, the DC50 on IRAK4 (setting [1]) was more than 1000 nM; at IRAK4 (setting [2]), 10 to 100 nM.

As to `CN(CCCc1ccc(CNc2cccc3c2C(=O)N(C2CCC(=O)NC2=O)C3=O)cc1)C[C@H]1CC[C@H](n2cc(NC(=O)c3cnn4ccc(N5C[C@H]6C[C@@H]5CO6)nc34)c(C(F)F)n2)CC1` (stereo partly shown) [I-361], in the experiment with OCI-LY10 (Homo sapiens, OCI-Ly10, 96 h), the half-maximal inhibitory concentration (IC50) lay in the range of 500 to 1000 nM. For the same compound, the DC50 on IRAK4 (setting [1]) was more than 1000 nM; at IRAK4 (setting [2]), 10 to 100 nM.

On to `O=C1CCC(N2C(=O)c3cccc(NCCc4ccc(CCNC[C@H]5CC[C@H](n6cc(NC(=O)c7cnn8ccc(N9C[C@H]%10C[C@@H]9CO%10)nc78)c(C(F)F)n6)CC5)cc4)c3C2=O)C(=O)N1` (stereo partly drawn) [I-346, N-[3-(difluoromethyl)-1-[4-[[2-[4-[2-[[2-(2,6-dioxo-3-piperidyl)-1,3-dioxo-isoindolin-4-yl]amino]ethyl]phenyl]ethylamino]methyl]cyclohexyl]pyrazol-4-yl]-5-[(1R,4R)-2-oxa-5-azabicyclo[2.2.1]heptan-5-yl]pyrazolo[1,5-a]pyrimidine-3-carboxamide], for which the IC50 with OCI-LY10 (Homo sapiens, OCI-Ly10, 96 h) is less than 50 nM. The DC50 at IRAK4 (setting [1]) was more than 1000 nM.

For the compound `CN1C(=O)CCC(n2c(=O)n(C)c3c(CN4CCC(N(C)C[C@H]5CC[C@H](n6cc(NC(=O)c7coc(-c8ccnc(NCC9CC9)c8)n7)c(C(F)F)n6)CC5)CC4)cccc32)C1=O` (stereo partly shown) [I-247], in the experiment on OCI-LY10 (Homo sapiens, OCI-Ly10, 96 h), the IC50 is more than 1000 nM. At IRAK4 (setting [1]), the DC50 is 100 to 1000 nM.

As for `CN(CC1CCC(n2cc(NC(=O)c3cnn4ccc(C5CCOCC5)nc34)c(C(F)F)n2)CC1)[C@H]1CC[C@H](Nc2cccc3c2C(=O)N(C2CCC(=O)NC2=O)C3=O)CC1` (stereo partly shown) [I-478], in the experiment with OCI-LY10 (Homo sapiens, OCI-Ly10, 96 h), the IC50 is more than 1000 nM. Also, the values for the DC50 at IRAK4 (setting [3]) and on IRAK4 (setting [4]) were 100 to 1000 nM and 10 to 100 nM, respectively.

Consider `O=C1CCC(N2C(=O)c3cccc(CNC4CC5(CCN(C[C@H]6CC[C@H](n7cc(NC(=O)c8cnn9ccc(N%10C[C@H]%11C[C@@H]%10CO%11)nc89)c(C(F)F)n7)CC6)CC5)C4)c3C2=O)C(=O)N1` (stereo partly shown) [I-360], for which, in the experiment with OCI-LY10 (Homo sapiens, OCI-Ly10, 96 h), the half-inhibitory concentration (IC50) was more than 1000 nM. Further, on IRAK4 (setting [1]), the DC50 is 10 to 100 nM.

As to `COc1cc(C(=O)NCCOCCOCCN(C)C[C@H]2CC[C@H](n3cc(NC(=O)c4coc(-c5ccnc(NCC6CC6)c5)n4)c(C(F)F)n3)CC2)ccc1NC(=O)[C@@H]1N[C@@H](CC(C)(C)C)[C@](C#N)(c2ccc(Cl)cc2F)[C@H]1c1cccc(Cl)c1F` [I-145], the IC50 in the experiment on OCI-LY10 is more than 1000 nM. The DC50 at IRAK4 (setting [1]) and at IRAK4 (setting [2]) was more than 1000 nM each time.

For `O=C1CCC(N2Cc3c(NCC4CCN(C[C@H]5CC[C@H](C6N=C(NC(=O)c7cnn8ccc(N9C[C@H]%10C[C@@H]9CO%10)nc78)C(C(F)F)=N6)CC5)CC4)cccc3C2=O)C(=O)N1` (stereo partly shown) [I-380], in the experiment with OCI-LY10 (Homo sapiens, OCI-Ly10, 96 h), the IC50 is more than 1000 nM. The DC50 at IRAK4 (setting [1]) fell in the range of 100 to 1000 nM; at IRAK4 (setting [2]), 10 to 100 nM.

In the case of `CN1C(=O)CCC(N2Cc3c(OCc4ccc(CN5CCN(C[C@H]6CC[C@H](n7cc(NC(=O)c8cnn9ccc(N%10CCOCC%10)nc89)c(C(F)F)n7)CC6)CC5)cc4)cccc3C2=O)C1=O` (stereo partly shown) [I-322], the IC50 with OCI-LY10 (Homo sapiens, OCI-Ly10, 96 h) was more than 1000 nM. The DC50 is 100 to 1000 nM on IRAK4 (setting [1]) and more than 1000 nM on IRAK4 (setting [2]).

Regarding `CN(CCCOCCCNc1cccc2c1C(=O)N(C1CCC(=O)NC1=O)C2=O)C[C@H]1CC[C@H](n2cc(NC(=O)c3coc(-c4ccnc(N5CCOCC5)c4)n3)c(C(F)F)n2)CC1` (stereo partly shown) [I-397], the IC50 in the experiment on OCI-LY10 (Homo sapiens, OCI-Ly10, 96 h) was in the range of 50 to 100 nM. In addition, the DC50 on IRAK4 (setting [1]) and at IRAK4 (setting [2]) was 100 to 1000 nM in each case.

With `CN(CCN(C)CC1CCC(n2cc(NC(=O)c3cnn4ccc(N5C[C@H]6C[C@@H]5CO6)nc34)c(C(F)F)n2)CC1)Cc1ccc(COc2cccc3c2C(=O)N(C2CCC(=O)NC2=O)C3=O)cc1` (stereo partly shown) [I-335], the IC50 in the experiment on OCI-LY10 (Homo sapiens, OCI-Ly10, 96 h) was 500 to 1000 nM. On IRAK4 (setting [1]), the DC50 lay within 100 to 1000 nM.

As to `CN(CCC1CCN(c2cccc3c2C(=O)N(C2CCC(=O)NC2=O)C3=O)CC1)C[C@H]1CC[C@H](n2cc(NC(=O)C3CNN4C=CC(N5CCOCC5)=NC34)c(C(F)F)n2)CC1` (stereo partly shown) [I-223], the IC50 in the experiment on OCI-LY10 (Homo sapiens, OCI-Ly10, 96 h) was more than 1000 nM. Besides, the DC50 on IRAK4 (setting [1]) is 10 to 100 nM.
